Test results from patent US11726083B2, “Method for testing drug response of cardiomyocytes” (Myoridge Co. Ltd., priority 2017, dated 2023).
Read-outs that look alike come from different tables or passages of the source.

System: cardiomyocytes prepared by inducing differentiation of a human iPS cell line (253G1)
Settings: for rate of change in heart rate / rate of change in Ca^2+ duration: 100% = no change
[1] = sample 2A: 100 nM, culture medium not containing hemoglobin, liquid-surface distance 6.67 mm
[2] = sample 2C: 100 nM, 0.5 mass % hemoglobin, liquid-surface distance 6.67 mm
[3] = sample 2D: 1000 nM, 0.5 mass % hemoglobin, liquid-surface distance 6.67 mm
[4] = sample 2E: 100 nM, 1.0 mass % hemoglobin, liquid-surface distance 6.67 mm
[5] = sample 2F: 1000 nM, 1.0 mass % hemoglobin, liquid-surface distance 6.67 mm
[6] = sample 3A: 100 nM, liquid-surface distance 8.33 mm
[7] = sample 3C: 100 nM, liquid-surface distance 6.67 mm
[8] = sample 3E: 100 nM, liquid-surface distance 5.00 mm
[9] = sample 3G: 100 nM, liquid-surface distance 3.33 mm
[10] = sample 3H: 1000 nM, liquid-surface distance 3.33 mm
[11] = sample 3I: 100 nM, liquid-surface distance 1.67 mm
[12] = sample 3J: 1000 nM, liquid-surface distance 1.67 mm
[13] = sample 4A: 100 nM, control container (polystyrene), liquid-surface distance 6.67 mm
[14] = sample 4C: 100 nM, oxygen-permeable container (VECELL 96-well plate), liquid-surface distance 6.67 mm
[15] = sample 5M: 300 μM, no hemoglobin, liquid-surface distance 6.67 mm
[16] = sample 5N: 300 μM, 2.0% by mass of hemoglobin, liquid-surface distance 1.0 mm
[17] = sample 5P: 500 μM, 2.0% by mass of hemoglobin, liquid-surface distance 1.0 mm

Which “expected drug response (tachycardic response)” value [1] does the source give for `CC(C)NCC(O)c1ccc(O)c(O)c1` (stereo not shown) [isoproterenol] here?
The value was “detected”.

And the “pulsation (pulsation arrest)” value [1]?
The value was “did not stop”.

What about the “pulsation (pulsation arrest)” value (sample 2B: 1000 nM, culture medium not containing hemoglobin, liquid-surface distance 6.67 mm) of the same molecule?
The value was “stopped at a high frequency”.

What about the expected drug response [2] of the same molecule?
Its expected drug response is “detected”.

And the “pulsation (pulsation arrest)” value [2]?
Its value is “did not stop”.

And the expected drug response [3]?
The expected drug response was “detected”.

What about the “pulsation (pulsation arrest)” value [3] of the same molecule?
The value was “did not stop at all”.

What about the expected drug response [4] of the same molecule?
The expected drug response was “detected”.

What about the “pulsation (pulsation arrest)” value [4] of the same molecule?
Its value is “did not stop”.

And the expected drug response [5]?
The expected drug response was “detected”.

What about the “pulsation (pulsation arrest)” value [5] of the same molecule?
Its value is “did not stop at all”.

And the “expected drug response (tachycardic response)” value [6]?
Its value is “detected”.

And the “pulsation (pulsation arrest)” value [6]?
The value was “did not stop”.

And the “pulsation (pulsation arrest)” value (sample 3B: 1000 nM, liquid-surface distance 8.33 mm)?
Its value is “stopped at a high frequency”.

And the expected drug response [7]?
The expected drug response was “detected”.

What about the “pulsation (pulsation arrest)” value [7] of the same molecule?
The value was “did not stop”.

What about the “pulsation (pulsation arrest)” value (sample 3D: 1000 nM, liquid-surface distance 6.67 mm) of the same molecule?
Its value is “stopped at a high frequency”.

And the expected drug response [8]?
The expected drug response was “detected”.

And the “pulsation (pulsation arrest)” value [8]?
The value was “did not stop”.

And the “frequency of the occurrence of the pulsation arrest” value (sample 3F: 1000 nM, liquid-surface distance 5.00 mm)?
The value was “about 50%”.

What about the expected drug response [9] of the same molecule?
Its expected drug response is “detected”.

And the “pulsation (pulsation arrest)” value [9]?
The value was “did not stop”.

What about the expected drug response [10] of the same molecule?
Its expected drug response is “detected”.

And the “pulsation (pulsation arrest)” value [10]?
The value was “hardly stopped”.

What about the expected drug response [11] of the same molecule?
The expected drug response was “detected”.

What about the “pulsation (pulsation arrest)” value [11] of the same molecule?
The value was “did not stop”.

What about the expected drug response [12] of the same molecule?
The expected drug response was “detected”.

What about the “pulsation (pulsation arrest)” value [12] of the same molecule?
The value was “did not stop at all”.

And the “expected drug response (tachycardic response)” value [13]?
Its value is “detected”.

What about the “pulsation (pulsation arrest)” value [13] of the same molecule?
The value was “did not stop”.

What about the “pulsation (pulsation arrest)” value (sample 4B: 1000 nM, control container (polystyrene), liquid-surface distance 6.67 mm) of the same molecule?
Its value is “stopped at a high frequency”.

What about the expected drug response [14] of the same molecule?
Its expected drug response is “detected”.

And the “pulsation (pulsation arrest)” value [14]?
The value was “did not stop”.

And the “pulsation (pulsation arrest)” value (sample 4D: 1000 nM, oxygen-permeable container (VECELL 96-well plate), liquid-surface distance 6.67 mm)?
The value was “stopped only at a low frequency”.

How did the “expected drug response (tachycardic response)” value [15] turn out when `Cc1[nH]c(=O)c(C#N)cc1-c1ccncc1` [milrinone] was run?
Its value is “not detected”.

What about the “pulsation (pulsation arrest)” value [15] of the same molecule?
The value was “did not stop”.

What about the “rate of change in heart rate” value [15] of the same molecule?
The value was 79%.

And the expected drug response [16]?
The expected drug response was “detected”.

And the “pulsation (pulsation arrest)” value [16]?
Its value is “did not stop”.

And the “rate of change in heart rate” value [16]?
Its value is 118%.

And the “pulsation (pulsation arrest)” value (sample 5O: 500 μM, no hemoglobin, liquid-surface distance 6.67 mm)?
Its value is “stopped at a high frequency”.

What about the “expected drug response (tachycardic response)” value [17] of the same molecule?
Its value is “detected”.

And the “pulsation (pulsation arrest)” value [17]?
Its value is “did not stop”.

What about the “rate of change in heart rate” value [17] of the same molecule?
Its value is 154%.

`CC(C)(C)c1ccc(C(O)CCCN2CCC(C(O)(c3ccccc3)c3ccccc3)CC2)cc1` (stereo not shown) [terfenadine] was tested. Which “pulsation (pulsation arrest)” value (sample 5I: 0.1 μM, no hemoglobin, liquid-surface distance 6.67 mm) did it give?
Its value is “did not stop”.

What about the “pulsation (pulsation arrest)” value (sample 5J: 0.1 μM, 0.5% by mass of hemoglobin, liquid-surface distance 1.67 mm) of the same molecule?
The value was “did not stop”.

And the “pulsation (pulsation arrest)” value (sample 5K: 0.7 μM, no hemoglobin, liquid-surface distance 6.67 mm)?
Its value is “stopped at a high frequency”.

What about the “pulsation (pulsation arrest)” value (sample 5L: 0.7 μM, 0.5% by mass of hemoglobin, liquid-surface distance 1.67 mm) of the same molecule?
The value was “did not stop”.

And the “rate of change in Ca^2+ duration” value (sample 6A: 0.3 μM, 0.5% by mass of hemoglobin, liquid-surface distance 1.67 mm)?
The value was “about 135%”.

What about the “rate of change in Ca^2+ duration” value (sample 6B: 0.5 μM, 0.5% by mass of hemoglobin, liquid-surface distance 1.67 mm) of the same molecule?
The value was “about 170%”.

Which “pulsation (pulsation arrest)” value (sample 5E: 0.1 μM, no hemoglobin, liquid-surface distance 6.67 mm) does the source give for `Cc1cccc(CCN2CCC(C(=O)c3ccc(NS(C)(=O)=O)cc3)CC2)n1` [E-4031] here?
Its value is “did not stop”.

What about the “pulsation (pulsation arrest)” value (sample 5F: 0.1 μM, 0.5% by mass of hemoglobin, liquid-surface distance 1.67 mm) of the same molecule?
The value was “did not stop”.

What about the “pulsation (pulsation arrest)” value (sample 5G: 0.3 μM, no hemoglobin, liquid-surface distance 6.67 mm) of the same molecule?
The value was “stopped at a high frequency”.

What about the “pulsation (pulsation arrest)” value (sample 5H: 0.3 μM, 0.5% by mass of hemoglobin, liquid-surface distance 1.67 mm) of the same molecule?
The value was “did not stop”.

With “hemoglobin: bovine hemoglobin (Nacalai tesque 17553-92), oxygen carrier added to the culture medium” as the molecule, how does the “occurrence of the pulsation arrest of the cardiomyocytes during the drug response testing” value (0.5 or 1.0 mass % hemoglobin added to the culture medium, isoproterenol 100/1000 nM, liquid-surface distance 6.67 mm (FIG. 3)) read?
The value was “suppressed”.
